Key:
[1] = system: antibodies in sera from SARS patients (sera 1a, 1b, 2, 6, 37, 62, London, SARS-yellow, SARS-green); assay type: binding, human; parameters: Binding of serum 6 to linear peptides of protein X1 of SARS-CoV Urbani / Binding of serum 37 to linear peptides of protein X1 of SARS-CoV Urbani / Binding of serum 6 to looped/cyclic peptide (PEPSCAN-ELISA) / Binding of serum 37 to looped/cyclic peptide (PEPSCAN-ELISA) / Binding of serum 37 to looped/cyclic peptides of protein X1 of SARS-CoV Urbani / Binding of serum 6 to linear peptides of protein X2 / Binding of serum 37 to linear peptides of protein X2 / Binding of serum 37 to looped/cyclic peptides of protein X2 of SARS-CoV Urbani / Binding of serum 6 to linear peptides of protein M of SARS-CoV Urbani / Binding of serum 37 to linear peptides of protein M of SARS-CoV Urbani / Binding of serum 6 to looped/cyclic peptides of protein M of SARS-CoV Urbani / Binding of serum 37 to looped/cyclic peptides of protein M of SARS-CoV Urbani / Binding of serum 6 to linear peptides of protein X3 of SARS-CoV Urbani / Binding of serum 37 to linear peptides of protein X3 of SARS-CoV Urbani / Binding of serum 37 to looped/cyclic peptides of protein X3 of SARS-CoV Urbani / Binding of serum 6 to linear peptides of protein X4 of SARS-CoV Urbani / Binding of serum 37 to linear peptides of protein X4 of SARS-CoV Urbani / Binding of serum 37 to looped/cyclic peptides of protein X4 of SARS-CoV Urbani / Binding of serum 6 to linear peptides of protein X5 of SARS-CoV Urbani / Binding of serum 37 to linear peptides of protein X5 of SARS-CoV Urbani / Binding of serum 37 to looped/cyclic peptides of protein X5 of SARS-CoV Urbani / Binding of serum 6 to linear peptides of protein N of SARS-CoV Urbani / Binding of serum 37 to linear peptides of protein N of SARS-CoV Urbani / Binding of serum 6 to linear peptide (PEPSCAN-ELISA) / Binding of serum 1a to looped/cyclic peptides of protein N of SARS-CoV Urbani / Binding of serum 1b to looped/cyclic peptides of protein N of SARS-CoV Urbani / Binding of serum 2 to looped/cyclic peptides of protein N of SARS-CoV Urbani / Binding of serum 6 to looped/cyclic peptides of protein N of SARS-CoV Urbani / Binding of serum 37 to looped/cyclic peptides of protein N of SARS-CoV Urbani / Binding of serum 62 to looped/cyclic peptides of protein N of SARS-CoV Urbani / Binding of serum London to looped/cyclic peptides of protein N of SARS-CoV Urbani / Binding of serum SARS-green to looped/cyclic peptides of protein N of SARS-CoV Urbani: unit not given here
[2] = system: control sera (pooled serum of ten healthy LUMC hospital workers; commercial negative donor pooled serum from the Dutch bloodbank); assay type: binding, human; parameters: Binding of Control serum LUMC to linear peptides / Binding of Control serum Blood-bank to linear peptides / Binding of Control serum LUMC to looped peptides / Binding of Control Serum Blood-Bank to Looped peptides / Binding of Control serum LUMC to linear peptides of the protein M of SARS-CoV Urbani / Binding of Control serum Blood-bank to linear peptides of the protein M of SARS-CoV Urbani / Binding of Control serum LUMC to looped peptides of the protein M of SARS-CoV Urbani / Binding of Control Serum Blood-Bank to Looped peptides of the protein M of SARS-CoV Urbani: unit not given here
[3] = system: rabbit serum obtained by immunizing a rabbit with the SARS-CoV strain Frankfurt 1; assay type: binding; parameters: Binding of a rabbit serum to linear peptides / Binding of a rabbit serum to looped peptides / Rabbit serum linear peptides / Rabbit serum looped peptides / Binding of a rabbit serum to linear peptides of protein N of SARS-CoV Urbani (Rabbit serum linear peptides) / Binding of a rabbit serum to looped/cyclic peptides of protein N of SARS-CoV Urbani (Rabbit serum looped peptides): unit not given here

LIVAALVFLILCFTI
Binding of serum 1a to linear peptides of protein X4 of SARS-CoV Urbani [1]: 0.7 | Binding of serum 1a to looped/cyclic peptides of protein X4 of SARS-CoV Urbani [1]: 0.6 | Binding of serum 1b to linear peptides of protein X4 of SARS-CoV Urbani [1]: 0.5 | Binding of serum 1b to looped/cyclic peptides of protein X4 of SARS-CoV Urbani [1]: 0.3 | Binding of serum 2 to linear peptides of protein X4 of SARS-CoV Urbani [1]: 0.5 | Binding of serum 2 to looped/cyclic peptides of protein X4 of SARS-CoV Urbani [1]: 0.5 | Binding of serum 6 to linear peptides of protein X4 of SARS-CoV Urbani [1]: 0.4 | Binding of serum 6 to looped/cyclic peptides of protein X4 of SARS-CoV Urbani [1]: 0.3 | Binding of serum 37 to linear peptides of protein X4 of SARS-CoV Urbani [1]: 0.6 | Binding of serum 37 to looped/cyclic peptides of protein X4 of SARS-CoV Urbani [1]: 0.6 | Binding of serum 62 to linear peptides of protein X4 of SARS-CoV Urbani [1]: 0.6 | Binding of serum 62 to looped/cyclic peptides of protein X4 of SARS-CoV Urbani [1]: 0.6 | Binding of serum London to linear peptides of protein X4 of SARS-CoV Urbani [1]: 0.6 | Binding of serum London to looped/cyclic peptides of protein X4 of SARS-CoV Urbani [1]: 0.2 | Binding of serum SARS-green to linear peptides of protein X4 of SARS-CoV Urbani [1]: 0.5 | Binding of serum SARS-green to looped/cyclic peptides of protein X4 of SARS-CoV Urbani [1]: 0.4 | Binding of serum SARS-yellow to linear peptides of protein X4 of SARS-CoV Urbani [1]: 0.4 | Binding of serum SARS-yellow to looped/cyclic peptides of protein X4 of SARS-CoV Urbani [1]: 0.5 | Binding of Control Serum Blood-Bank to Looped peptides [2]: 0.5 | Binding of Control serum Blood-bank to linear peptides [2]: 0.6 | Binding of Control serum LUMC to linear peptides [2]: 0.4 | Binding of Control serum LUMC to looped peptides [2]: 0.5 | Rabbit serum linear peptides [3]: 0.5 | Rabbit serum looped peptides [3]: 0.4

LKMLHSSSLTSLLKT
Binding of serum 1a to linear peptides of protein X2 [1]: 0.6 | Binding of serum 1a to looped/cyclic peptides of protein X2 of SARS-CoV Urbani [1]: 0.5 | Binding of serum 1b to linear peptides of protein X2 [1]: 0.5 | Binding of serum 1b to looped/cyclic peptides of protein X2 of SARS-CoV Urbani [1]: 0.5 | Binding of serum 2 to linear peptides of protein X2 [1]: 0.6 | Binding of serum 2 to looped/cyclic peptides of protein X2 of SARS-CoV Urbani [1]: 0.3 | Binding of serum 6 to linear peptides of protein X2 [1]: 0.4 | Binding of serum 6 to looped/cyclic peptides of protein X2 of SARS-CoV Urbani [1]: 0.3 | Binding of serum 37 to linear peptides of protein X2 [1]: 0.6 | Binding of serum 37 to looped/cyclic peptides of protein X2 of SARS-CoV Urbani [1]: 0.4 | Binding of serum 62 to linear peptides of protein X2 [1]: 0.6 | Binding of serum 62 to looped/cyclic peptides of protein X2 of SARS-CoV Urbani [1]: 0.6 | Binding of serum London to linear peptides of protein X2 [1]: 0.5 | Binding of serum London to looped/cyclic peptides of protein X2 of SARS-CoV Urbani [1]: 0.2 | Binding of serum SARS-green to linear peptides of protein X2 [1]: 0.5 | Binding of serum SARS-green to looped/cyclic peptides of protein X2 of SARS-CoV Urbani [1]: 0.3 | Binding of serum SARS-yellow to linear peptides of protein X2 [1]: 0.6 | Binding of serum SARS-yellow to looped/cyclic peptides of protein X2 of SARS-CoV Urbani [1]: 0.2 | Binding of Control Serum Blood-Bank to Looped peptides [2]: 0.6 | Binding of Control serum Blood-bank to linear peptides [2]: 0.7 | Binding of Control serum LUMC to linear peptides [2]: 0.4 | Binding of Control serum LUMC to looped peptides [2]: 0.5 | Binding of a rabbit serum to linear peptides [3]: 0.2 | Binding of a rabbit serum to looped peptides [3]: 0.4

LLACLCKHKKVSTNL
Binding of serum 1a to looped/cyclic peptides of protein X2 of SARS-CoV Urbani [1]: 0.4 | Binding of serum 1b to looped/cyclic peptides of protein X2 of SARS-CoV Urbani [1]: 0.4 | Binding of serum 2 to looped/cyclic peptides of protein X2 of SARS-CoV Urbani [1]: 0.4 | Binding of serum 6 to looped/cyclic peptides of protein X2 of SARS-CoV Urbani [1]: 0.4 | Binding of serum 37 to looped/cyclic peptides of protein X2 of SARS-CoV Urbani [1]: 0.5 | Binding of serum 62 to looped/cyclic peptides of protein X2 of SARS-CoV Urbani [1]: 0.7 | Binding of serum London to looped/cyclic peptides of protein X2 of SARS-CoV Urbani [1]: 0.2 | Binding of serum SARS-green to looped/cyclic peptides of protein X2 of SARS-CoV Urbani [1]: 0.3 | Binding of serum SARS-yellow to looped/cyclic peptides of protein X2 of SARS-CoV Urbani [1]: 0.4 | Recognition of the peptide by sera of SARS-CoV infected individuals, and form (linear, looped/cyclic) in which it is recognized [1]: recognized in linear form | Binding of Control Serum Blood-Bank to Looped peptides [2]: 0.5 | Binding of Control serum Blood-bank to linear peptides [2]: 0.8 | Binding of Control serum LUMC to linear peptides [2]: 0.8 | Binding of Control serum LUMC to looped peptides [2]: 0.7 | Binding of a rabbit serum to linear peptides [3]: 0.4 | Binding of a rabbit serum to looped peptides [3]: 0.4

Reference: US20070128217A1 (priority 2003, published 2007)
